The record followed here is patent US20250228239A1, “MOLECULES HAVING PESTICIDAL UTILITY, AND INTERMEDIATES, COMPOSITIONS, AND PROCESSES, RELATED THERETO” (priority 2024, published 2025).

The term mortality denotes the percentage killed.

Holding throughout (type): in vivo
The subject of data set [1] is Yellow Fever Mosquito (Aedes aegypti, AEDSAE). The conditions noted are these: for YFM rating: Table ABC / ABC-DP rating. In outline:
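Compounds from 4000 ppm DMSO stocks were diluted in 90:10 water/acetone and dispensed into wells, then infested with about 1-day-old larvae in liver-powder water. Covered plates were held at room temperature for 3 days and each well was scored for mortality against a rating scale; six replicate plates per compound.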

The subject of data set [2] is Beet Armyworm (Spodoptera exigua, LAPHEG). In words: Bioassays on Beet Armyworm (BAW), 128-well diet tray assay. Particulars: Spodoptera exigua. In outline:
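Larvae at second instar are exposed on dried, compound-treated diet (50 μg/cm^2, delivered in 90:10 acetone-water) in eight replicate wells. After five to seven days at 25° C., 14:10 light-dark, percent mortality in each well is scored and the eight wells averaged.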

Data set [3] relates to Cabbage Looper (Trichoplusia ni, TRIPNI). The data set is described as follows: Bioassays on Cabbage Looper (CL), 128-well diet tray assay. Particulars: Trichoplusia ni. In outline: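 Percent mortality, averaged across eight replicate wells, after second-instar larvae (1–5 per well) fed for five to seven days on diet dosed at 50 μg/cm^2. Compound was applied in acetone-water 90:10 and dried; trays kept vented at 25° C under 14:10 photoperiod.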

Setting [4] is: Beet Armyworm, Table ABC / ABC-DP rating, read-out: BAW rating.
Where [5] appears, read: Cabbage Looper, Table ABC / ABC-DP rating, read-out: CL rating.
[6] abbreviates: Table ABC: Biological Results, species YFM.
The mark [7] stands for this setting: Table ABC: Biological Results, species BAW, read-out: BAW.
The mark [8] stands for this setting: Table ABC: Biological Results, species CL, read-out: CL.
[9] abbreviates: Yellow Fever Mosquito, rating class.
The mark [10] stands for this setting: Beet Armyworm, rating class, read-out: BAW.
Setting [11] is: Cabbage Looper, rating class, read-out: CL.

Like-named read-outs stand apart in the source and are kept apart here.

As for `CCCN(C(=O)C(C)OCC)c1c(F)ccc(NC(=O)c2cc(NC(=O)[C@H]3[C@H](c4ccc(F)c(C(F)(F)F)c4)C3(Cl)Cl)ccc2Cl)c1F` (stereo partly drawn) [F1842, 2-Chloro-5-((1R,3R)-2,2-dichloro-3-(4-fluoro-3-(trifluoromethyl)phenyl)cyclopropane-1-carboxamido)-N-(3-(2-ethoxy-N-propylpropanamido)-2,4-difluorophenyl)benzamide], the YFM rating entry in data set [1] (Yellow Fever Mosquito) is reported as “A (80–100)”. Also, the pest or weed control at 50 µg/cm2 in data set [2] (setting [4]) and in data set [3] (setting [5]) was 50 to 100% each time.
As for `Cc1c(Cl)cc(NC(=O)[C@H]2[C@H](c3ccc(F)c(Cl)c3)C2(Cl)Cl)cc1C(=O)NCC(F)(F)C(F)(F)F` (relative stereo) [F2043, trans-3-Chloro-5-(2,2-dichloro-3-(3-chloro-4-fluorophenyl)cyclopropane-1-carboxamido)-2-methyl-N-(2,2,3,3,3-pentafluoropropyl)benzamide], the YFM rating result in data set [1] (Yellow Fever Mosquito) is on record as “A (80–100)”. For the same molecule, the pest or weed control at 50 µg/cm2 in data set [2] (setting [4]) and in data set [3] (setting [5]) was 50 to 100% each time.
In the case of `O=C(Nc1ccc(F)c(NC(=O)C2CC=CCC2)c1F)c1cc(NC(=O)[C@H]2[C@H](c3ccc(F)c(C(F)(F)F)c3)C2(Cl)Cl)ccc1Cl` (stereo partly drawn) [F1297, 2-Chloro-N-(3-(cyclohex-3-ene-1-carboxamido)-2,4-difluorophenyl)-5-((1R,3R)-2,2-dichloro-3-(4-fluoro-3-(trifluoromethyl)phenyl)cyclopropane-1-carboxamido)benzamide], in data set [1] (setting [6]), the YFM result is reported as “A (80–100)”. For the same molecule, the pest or weed control at 50 µg/cm2 in data set [2] (setting [7]) and in data set [3] (setting [8]) was 50 to 100% in each case.
Take `CC(=O)Nc1ccc(NC(=O)c2cc(NC(=O)[C@H]3[C@H](c4ccc(F)c(Cl)c4)C3(Cl)Cl)cc(C)c2Cl)cc1` (relative stereo) [F1186, trans-N-(4-Acetamidophenyl)-2-chloro-5-(2,2-dichloro-3-(3-chloro-4-fluorophenyl)cyclopropane-1-carboxamido)-3-methylbenzamide]: the YFM entry in data set [1] (setting [6]) is on record as “A (80–100)”. The pest or weed control at 50 µg/cm2 in data set [2] (setting [7]) and in data set [3] (setting [8]) was 50 to 100% throughout.
Turning to `CC(=O)NCCCCNC(=O)c1cc(NC(=O)[C@H]2[C@H](c3cc(Cl)cc(Cl)c3)C2(Cl)Cl)ccc1Cl` (relative stereo) [F2068, trans-N-(4-Acetamidobutyl)-2-chloro-5-(2,2-dichloro-3-(3,5-dichlorophenyl)cyclopropane-1-carboxamido)benzamide], the YFM rating entry in data set [1] (Yellow Fever Mosquito) is on record as “A (80–100)”. The pest or weed control at 50 µg/cm2 in data set [2] (setting [4]) and in data set [3] (setting [5]) was 50 to 100% throughout.
In the case of `O=C(Nc1ccc(F)c(NC(=O)C(F)(F)F)c1F)c1cc(NC(=O)[C@H]2[C@H](c3cc(C(F)(F)F)cc(C(F)(F)F)c3)C2(Cl)Cl)ccc1Cl` (relative stereo) [F1801, trans-5-(3-(3,5-bis(Trifluoromethyl)phenyl)-2,2-dichlorocyclopropane-1-carboxamido)-2-chloro-N-(2,4-difluoro-3-(2,2,2-trifluoroacetamido)phenyl)benzamide], in data set [1] (Yellow Fever Mosquito), the YFM rating entry is “A (80–100)”. The pest or weed control at 50 µg/cm2 in data set [2] (setting [4]) and in data set [3] (setting [5]) was 50 to 100% in each case.
Consider `CN(C(=O)c1cc(NC(=O)[C@H]2[C@H](c3ccc(F)c(C(F)(F)F)c3)C2(Cl)Cl)ccc1Cl)c1ccc(F)c(N)c1F` (relative stereo) [F1112, trans-N-(3-amino-2,4-difluorophenyl)-2-chloro-5-(2,2-dichloro-3-(4-fluoro-3-(trifluoromethyl)phenyl)cyclopropane-1-carboxamido)-N-methylbenzamide], for which the YFM result in data set [1] (setting [6]) is given as “A (80–100)”. Further, the pest or weed control at 50 µg/cm2 in data set [2] (setting [7]) and in data set [3] (setting [8]) was 50 to 100% each time.
Consider `CC(=O)Nc1ccc(NC(=O)c2cc(NC(=O)[C@H]3[C@H](c4ccc(F)c(Cl)c4)C3(Cl)Cl)cc(C)c2F)cc1` (relative stereo) [F1139, trans-N-(4-Acetamidophenyl)-5-(2,2-dichloro-3-(3-chloro-4-fluorophenyl)-cyclopropane-1-carboxamido)-2-fluoro-3-methylbenzamide], for which, in data set [1] (setting [6]), the YFM result is recorded as “A (80–100)”. Also, the pest or weed control at 50 µg/cm2 in data set [2] (setting [7]) and in data set [3] (setting [8]) was 50 to 100% each time.
As for `CN(C(=O)CC#N)c1c(F)ccc(NC(=O)c2cc(NC(=O)[C@H]3[C@H](c4ccc(F)c(C(F)(F)F)c4)C3(Cl)Cl)ccc2Cl)c1F` [F1752, 2-Chloro-N-(3-(2-cyano-N-methylacetamido)-2,4-difluorophenyl)-5-((1R,3R)-2,2-dichloro-3-(4-fluoro-3-(trifluoromethyl)phenyl)cyclopropane-1-carboxamido)benzamide], in data set [1] (setting [9]), the YFM entry was “A (80–100)”. The pest or weed control at 50 µg/cm2 in data set [2] (setting [10]) and in data set [3] (setting [11]) was 50 to 100% in each case.
Take `O=C(Nc1c(F)cc(F)cc1Br)c1cc(NC(=O)[C@H]2[C@H](c3cc(Cl)cc(Cl)c3)C2(Cl)Cl)ccc1Cl` (relative stereo) [F1309, trans-N-(2-Bromo-4,6-difluorophenyl)-2-chloro-5-(2,2-dichloro-3-(3,5-dichlorophenyl)cyclopropane-1-carboxamido)benzamide]: the YFM entry in data set [1] (setting [6]) was “A (80–100)”. Also, the pest or weed control at 50 µg/cm2 in data set [2] (setting [7]) and in data set [3] (setting [8]) was 50 to 100% throughout.
In the case of `COc1ccc(NNC(=O)c2cc(NC(=O)[C@H]3[C@H](c4cc(Cl)cc(Cl)c4)C3(Cl)Cl)ccc2Cl)cc1` (relative stereo) [F2563, trans-2,2-Dichloro-N-(4-chloro-3-(2-(4-methoxyphenyl)hydrazine-1-carbonyl)phenyl)-3-(3,5-dichlorophenyl)cyclopropane-1-carboxamide], the YFM rating result in data set [1] (Yellow Fever Mosquito) was “B (More than 0 – Less than 80)”. The “YFM % Control (or Mortality) rating” value in data set [1] (about 1 day-old larvae, 4000 ppm master solution diluted with 90:10 water/acetone, 15 μL per well plus 220 μL larval mixture, 3 days, mortality) is “B (More than 0 – Less than 80)”. For the same molecule, the mortality at 50 µg/cm2 in data set [2] (168 h, second instar larvae, 50 μg/cm^2 of test molecule on artificial diet, 25° C., five to seven days, average of eight wells, read-out: BAW % Control (or Mortality) rating) was 50 to 100%; in data set [3] (168 h, second instar larvae, 50 μg/cm^2 of test molecule on artificial diet, 25° C., five to seven days, average of eight wells, read-out: CL % Control (or Mortality) rating), 50 to 100%. The pest or weed control at 50 µg/cm2 in data set [2] (setting [4]) and in data set [3] (setting [5]) was 50 to 100% each time.
Regarding `N#Cc1ccc(NNC(=O)c2cc(NC(=O)[C@H]3[C@H](c4cc(Cl)cc(Cl)c4)C3(Cl)Cl)ccc2Cl)cc1` (relative stereo) [F2554, trans-2,2-Dichloro-N-(4-chloro-3-(2-(4-cyanophenyl)hydrazine-1-carbonyl)phenyl)-3-(3,5-dichlorophenyl)cyclopropane-1-carboxamide], the YFM rating result in data set [1] (Yellow Fever Mosquito) is given as “A (80–100)”. Also, the pest or weed control at 50 µg/cm2 in data set [2] (setting [4]) and in data set [3] (setting [5]) was 50 to 100% each time.
Consider `COc1c(F)cc(NC(=O)[C@H]2[C@H](c3ccc(F)c(Cl)c3)C2(Cl)Cl)cc1C(=O)Nc1ccc(NC(C)=O)cc1` (relative stereo) [F1220, trans-N-(4-Acetamidophenyl)-5-(2,2-dichloro-3-(3-chloro-4-fluorophenyl)-cyclopropane-1-carboxamido)-3-fluoro-2-methoxybenzamide], for which, in data set [1] (setting [6]), the YFM entry is “A (80–100)”. The pest or weed control at 50 µg/cm2 in data set [2] (setting [7]) and in data set [3] (setting [8]) was 50 to 100% in each case.
As for `Cc1cc(NC(=O)[C@H]2[C@H](c3ccc(F)c(Cl)c3)C2(Cl)Cl)cc(C(=O)Nc2ccccc2)c1Cl` (relative stereo) [F1183, trans-2-Chloro-5-(2,2-dichloro-3-(3-chloro-4-fluorophenyl)cyclopropane-1-carboxamido)-3-methyl-N-phenylbenzamide], the YFM result in data set [1] (setting [6]) is listed as “A (80–100)”. Further, the pest or weed control at 50 µg/cm2 in data set [2] (setting [7]) and in data set [3] (setting [8]) was 50 to 100% in each case.
Turning to `CC(=O)Nc1c(F)ccc(NC(=O)c2cc(NC(=O)[C@H]3[C@H](c4cc(Cl)c(Cl)c(Cl)c4)C3(Cl)Cl)ccc2F)c1F` [F1528, N-(3-Acetamido-2,4-difluorophenyl)-5-((1R,3R)-2,2-dichloro-3-(3,4,5-trichlorophenyl)cyclopropane-1-carboxamido)-2-fluorobenzamide], the YFM entry in data set [1] (setting [9]) is on record as “B (More than 0 – Less than 80)”. For the same molecule, the pest or weed control at 50 µg/cm2 in data set [2] (setting [10]) and in data set [3] (setting [11]) was 50 to 100% each time.
In the case of `O=C(Nc1ccc(F)c(NC(=O)C(F)(F)F)c1F)c1cc(NC(=O)[C@H]2[C@H](c3cc(Cl)c(Cl)c(Cl)c3)C2(Cl)Cl)ccc1F` [F1526, 5-((1R,3R)-2,2-Dichloro-3-(3,4,5-trichlorophenyl)cyclopropane-1-carboxamido)-N-(2,4-difluoro-3-(2,2,2-trifluoroacetamido)phenyl)-2-fluorobenzamide], the YFM entry in data set [1] (setting [9]) is “A (80–100)”. The pest or weed control at 50 µg/cm2 in data set [2] (setting [10]) and in data set [3] (setting [11]) was 50 to 100% each time.
In the case of `Nc1c(F)ccc(NC(=O)c2cc(NC(=O)[C@H]3[C@H](c4cccc(Br)c4)C3(Cl)Cl)ccc2Cl)c1F` (relative stereo) [F1594, trans-N-(3-Amino-2,4-difluorophenyl)-5-(3-(3-bromophenyl)-2,2-dichlorocyclopropane-1-carboxamido)-2-chlorobenzamide], the YFM entry in data set [1] (setting [9]) is listed as “A (80–100)”. The pest or weed control at 50 µg/cm2 in data set [2] (setting [10]) and in data set [3] (setting [11]) was 50 to 100% each time.
